According to patent US10590070B2, “Compositions and methods for treating and preventing neurodegenerative disorders” (ALZHEON, INC., priority 2015, dated 2020):

Target: T1, recombinant Human β-Amyloid Peptide (1-42) (Homo sapiens, UniProt P05067)
T1 construct: recombinant Human β-Amyloid Peptide (1-42); purchased BioLegend 843801
Test: Mass spectrometry (MS) binding assay
Conditions: 22 pmol/μL peptide, 1100 pmol/μL compound (50×); for Number of molecules bound to Aβ42: direct infusion Q-TOF MS, stoichiometry of the binding; for Semiquantitative Estimation: semiquantitative evaluation of the binding compared to a blank
Protocol: Compounds of the invention were screened by mass spectrometry (“MS”) binding assays to assess the ability of compounds to bind to the protein. Approximately 1 mg of the compound was reconstituted in 1 mL of MilliQ water and vortexed vigorously for 2 minutes until completely in solution. The sample was then diluted to create an approximately 2200 pmol/μL solution. One mg of recombinant Human β-Amyloid Peptide (1-42) from BioLegend (99% purity, cat: 843801) was reconstituted in 200 μL of MilliQ water and vortexed vigorously for 2 minutes to solubilize the peptide creating a 5 mg/mL solution. Samples were then diluted to a final concentration 44 pmol/μL prior to mix with drug solution. Samples were then mixed together for a final concentration of 22 pmol/μL (x) for peptide and 1100 pmol/μL for individual compounds (50×). Samples were infused directly in mass specs after adding 50 μL of 10% formic acid in final solution to increase the ionization. The data acquisition was performed using a Waters time of flight mass spectrometer (Q-TOF Micro). The data was acquired using the scanning mode to allow for the detection of the peptide. Samples were infused at room temperature. The mass spectrometer conditions were maintained throughout the study to ensure consistency of the data. The Waters Qtof conditions were as follows: Samples were directly infused into the mass spectrometer at a flow rate of 20 μL/min using in-build Syringe Pump and Hamilton 1 mL Syringe and the acquisition time was kept 2 minutes. Once acquisition of the samples was completed, the raw data was then analyzed using the Water MassLynx 4.1, SCN744. Stoichiometry of the binding was determined and the semiquantitative evaluation of the binding was compared to a blank.

T1 sequence (P05067 672-713 limits assumed): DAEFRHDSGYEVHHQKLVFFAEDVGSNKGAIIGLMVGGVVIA

Compound	Number of molecules bound to Aβ42	Semiquantitative Estimation
O=C([C@@H]1C[C@H](S(=O)(=O)O)CN1)N(CCO)CCO [Compound 2059]	[+2]	[++]
O=C(N[C@@H](Cc1ccccc1)C(=O)O)C1CCC(S(=O)(=O)O)C1 (some centres unmarked) [Compound 2034]	No Binding	
O=C(N[C@@H](Cc1ccc(O)cc1)C(=O)NC1CCC(S(=O)(=O)O)C1)OCc1ccccc1 (stereo partly drawn) [Compound 2021, 3-((S)-2-(((benzyloxy)carbonyl)amino)-3-(4-hydroxyphenyl)propanamido)cyclopentane-1-sulfonic acid]	No Binding	
N[C@@H](Cc1ccc(O)cc1)C(=O)NC1CCC(S(=O)(=O)O)C1 (stereo partly drawn) [Compound 2015, 3-((S)-2-amino-3-(4-hydroxyphenyl)propanamido)cyclopentane-1-sulfonic acid]	[+3]	[+++]
CC(C)C[C@H](NC(=O)OCc1ccccc1)C(=O)NC1CCC(S(=O)(=O)O)C1 (stereo partly drawn) [Compound 2024, 3-((S)-2-(((benzyloxy)carbonyl)amino)-4-methylpentanamido)cyclopentane-1-sulfonic acid]	No Binding	
O=C(NCc1ccccc1)[C@@H]1C[C@H](S(=O)(=O)O)CN1 [Compound 2055]	[+4]	[++++]
NC1CCC(S(=O)(=O)O)C1 (centres unmarked) [Compound 2005, 3-aminocyclopentane-1-sulfonic acid]	[+1]	[+]
O=C([C@@H]1C[C@@H](S(=O)(=O)O)CN1)N(CCO)CCO [Compound 2087]	[+4]	[++++]
COC(=O)C1CCC(S(=O)(=O)O)C1 (centres unmarked) [Compound 2028, 3-(Methoxycarbonyl)cyclopentane-1-sulfonic acid]	[+3]	[+++]
CS(=O)(=O)CC[C@H](NC(=O)OCc1ccccc1)C(=O)NC1CCC(S(=O)(=O)O)C1 (stereo partly drawn) [Compound 2026, 3-((S)-2-(((benzyloxy)carbonyl)amino)-4-(methylsulfonyl)butanamido)cyclopentane-1-sulfonic acid]	[+2]	[++]
CC(C)[C@H](N)C(=O)NC1CCC(S(=O)(=O)O)C1 (stereo partly drawn) [Compound 2010, 3-((S)-2-amino-3-methylbutanamido)cyclopentane-1-sulfonic acid]	[+2]	[++]
CCN(CC)C(=O)[C@@H]1C[C@@H](S(=O)(=O)O)CN1 [Compound 2085]	[+4]	[++++]
CNC(=O)[C@@H]1C[C@@H](S(=O)(=O)O)CN1 [Compound 2084]	[+5]	[+++++]
O=C(N[C@@H](CO)C(=O)O)C1CCC(S(=O)(=O)O)C1 (some centres unmarked) [Compound 2037]	[+1]	[+]
CS(=O)(=O)CC[C@H](N)C(=O)NC1CCC(S(=O)(=O)O)C1 (stereo partly drawn) [Compound 2014, 3-((S)-2-amino-4-(methylsulfonyl)butanamido)cyclopentane-1-sulfonic acid]	[+3]	[+++]
O=C(O)C1CCC(S(=O)(=O)O)C1 (centres unmarked) [Compound 2029, 3-Sulfocyclopentane-1-carboxylic acid]	[+3]	[+++]
N[C@@H](CO)C(=O)NC1CCC(S(=O)(=O)O)C1 (some centres unmarked) [Compound 2012]	[+4]	[++++]
O=C(NCc1ccccc1)C1CCC(S(=O)(=O)O)C1 (centres unmarked) [Compound 2030, 3-(benzylcarbamoyl)cyclopentane-1-sulfonic acid]	[+1]	[+]
O=C(NC1CCNCC1)[C@@H]1C[C@H](S(=O)(=O)O)CN1 [Compound 2077]	[+4]	[++++]
CC(C)C[C@H](N)C(=O)NC1CCC(S(=O)(=O)O)C1 (stereo partly drawn) [Compound 2011, 3-((S)-2-amino-4-methylpentanamido)cyclopentane-1-sulfonic acid]	[+1]	[+]
C[C@H](NC(=O)[C@@H]1C[C@H](S(=O)(=O)O)CN1)C(=O)O [Compound 2061]	[+4]	[++++]
O=C(NCc1ccccc1)[C@@H]1C[C@@H](S(=O)(=O)O)CN1 [Compound 2083]	[+2]	[++]
